Laboratory results as given in patent publication US20130157954A1, “METHODS FOR TREATMENT OR PROPHYLAXIS OF KIDNEY OR LIVER DYSFUNCTION” (NPS PHARMACEUTICALS, INC., priority 2010, published 2013).

Test: Example 1: kidney biomarkers (urea nitrogen, creatinine, GFR) in short bowel syndrome patients, every four weeks for 24 weeks; also sorted by >5% change from baseline
Assay type: in vivo, Human
Settings: for CREATININE (RATE BLANKED) change from baseline −5% <= and <=5%, number of patients / CREATININE (RATE BLANKED) change from baseline −5% <= and <=5%, percent of patients / GFR change from baseline <−5%, number of patients / GFR change from baseline <−5%, percent of patients / GFR change from baseline >5%, number of patients / GFR change from baseline >5%, percent of patients / GFR change from baseline −5% <= and <=5%, number of patients / GFR change from baseline −5% <= and <=5%, percent of patients / UREA NITROGEN change from baseline <−5%, number of patients / UREA NITROGEN change from baseline <−5%, percent of patients / UREA NITROGEN change from baseline >5%, number of patients / UREA NITROGEN change from baseline >5%, percent of patients / UREA NITROGEN change from baseline −5% <= and <=5%, number of patients / UREA NITROGEN change from baseline −5% <= and <=5%, percent of patients / CREATININE (RATE BLANKED) change from baseline <−5%, number of patients / CREATININE (RATE BLANKED) change from baseline <−5%, percent of patients / CREATININE (RATE BLANKED) change from baseline >5%, number of patients / CREATININE (RATE BLANKED) change from baseline >5%, percent of patients: 0.1 mg/kg/day
Description: Human patients with short bowel syndrome were divided into three groups: a control group (16 total individuals) to receive placebo, an experimental group (35 total individuals) to receive teduglutide at 0.05 mg/kg/day throughout the study, and an experimental group (32 total individuals) to receive teduglutide at 0.1 mg/kg/day throughout the study. Patients were treated by subcutaneous injection of placebo or the appropriate dose of teduglutide. As individuals with short bowel syndrome are likely to experience associated liver and kidney disease, known biomarkers of liver and kidney function were monitored every four weeks, for 24 weeks. The liver biomarkers tested included total bilirubin, ALT and AST and ALP. The kidney biomarkers tested included urea nitrogen, creatinine and GFR. Before administration of placebo or teduglutide, diagnostic biomarker levels were tested to establish a baseline for each individual.
To visualize the effect of GLP-2 on the levels of the diagnostic biomarkers, the average change from baseline was calculated for the placebo and teduglutide treated groups for each visit after a baseline was established. The average change from baseline of each group is depicted in FIGS. 1-7. The numerical figures for each diagnostic biomarker at each time point are depicted in Table 1.
The raw data for this sorting is reproduced in Table 2 below.

Compound: CC[C@H](C)[C@H](NC(=O)[C@H](Cc1ccccc1)NC(=O)[C@H](CC(=O)O)NC(=O)[C@H](CCCNC(=N)N)NC(=O)[C@H](C)NC(=O)[C@H](C)NC(=O)[C@H](CC(C)C)NC(=O)[C@H](CC(N)=O)NC(=O)[C@H](CC(=O)O)NC(=O)[C@H](CC(C)C)NC(=O)[C@@H](NC(=O)[C@@H](NC(=O)[C@H](CC(N)=O)NC(=O)[C@H](CCSC)NC(=O)[C@H](CCC(=O)O)NC(=O)[C@H](CC(=O)O)NC(=O)[C@H](CO)NC(=O)[C@H](Cc1ccccc1)NC(=O)[C@H](CO)NC(=O)CNC(=O)[C@H](CC(=O)O)NC(=O)CNC(=O)[C@@H](N)Cc1c[nH]cn1)[C@@H](C)O)[C@@H](C)CC)C(=O)N[C@@H](CC(N)=O)C(=O)N[C@@H](Cc1c[nH]c2ccccc12)C(=O)N[C@@H](CC(C)C)C(=O)N[C@H](C(=O)N[C@@H](CCC(N)=O)C(=O)N[C@H](C(=O)N[C@@H](CCCCN)C(=O)N[C@H](C(=O)N[C@H](C(=O)N[C@@H](CC(=O)O)C(=O)O)[C@@H](C)O)[C@@H](C)CC)[C@@H](C)O)[C@@H](C)CC [teduglutide]
- CREATININE (RATE BLANKED) change from baseline −5% <= and <=5%, number of patients (week 12): 4
- CREATININE (RATE BLANKED) change from baseline −5% <= and <=5%, percent of patients (week 12): (12.5%)
- GFR change from baseline <−5%, number of patients (week 12): 11
- GFR change from baseline <−5%, percent of patients (week 12): (34.4%)
- GFR change from baseline >5%, number of patients (week 12): 9
- GFR change from baseline >5%, percent of patients (week 12): (28.1%)
- GFR change from baseline −5% <= and <=5%, number of patients (week 12): 10
- GFR change from baseline −5% <= and <=5%, percent of patients (week 12): (31.3%)
- UREA NITROGEN change from baseline <−5%, number of patients (week 12): 13
- UREA NITROGEN change from baseline <−5%, percent of patients (week 12): (40.6%)
- UREA NITROGEN change from baseline >5%, number of patients (week 12): 14
- UREA NITROGEN change from baseline >5%, percent of patients (week 12): (43.8%)
- UREA NITROGEN change from baseline −5% <= and <=5%, number of patients (week 12): 3
- UREA NITROGEN change from baseline −5% <= and <=5%, percent of patients (week 12): (9.4%)
- CREATININE (RATE BLANKED) change from baseline <−5%, number of patients (week 16): 10
- CREATININE (RATE BLANKED) change from baseline <−5%, percent of patients (week 16): (31.3%)
- CREATININE (RATE BLANKED) change from baseline >5%, number of patients (week 16): 12
- CREATININE (RATE BLANKED) change from baseline >5%, percent of patients (week 16): (37.5%)
- CREATININE (RATE BLANKED) change from baseline −5% <= and <=5%, number of patients (week 16): 8
- CREATININE (RATE BLANKED) change from baseline −5% <= and <=5%, percent of patients (week 16): (25.0%)
- GFR change from baseline <−5%, number of patients (week 16): 12
- GFR change from baseline <−5%, percent of patients (week 16): (37.5%)
- GFR change from baseline >5%, number of patients (week 16): 12
- GFR change from baseline >5%, percent of patients (week 16): (37.5%)
- GFR change from baseline −5% <= and <=5%, number of patients (week 16): 6
- GFR change from baseline −5% <= and <=5%, percent of patients (week 16): (18.8%)
- UREA NITROGEN change from baseline <−5%, number of patients (week 16): 9
- UREA NITROGEN change from baseline <−5%, percent of patients (week 16): (28.1%)
- UREA NITROGEN change from baseline >5%, number of patients (week 16): 9
- UREA NITROGEN change from baseline >5%, percent of patients (week 16): (28.1%)
- UREA NITROGEN change from baseline −5% <= and <=5%, number of patients (week 16): 12
- UREA NITROGEN change from baseline −5% <= and <=5%, percent of patients (week 16): (37.5%)
- CREATININE (RATE BLANKED) change from baseline <−5%, number of patients (week 20): 7
- CREATININE (RATE BLANKED) change from baseline <−5%, percent of patients (week 20): (21.9%)
- CREATININE (RATE BLANKED) change from baseline >5%, number of patients (week 20): 13
- CREATININE (RATE BLANKED) change from baseline >5%, percent of patients (week 20): (40.6%)
- CREATININE (RATE BLANKED) change from baseline −5% <= and <=5%, number of patients (week 20): 9
- CREATININE (RATE BLANKED) change from baseline −5% <= and <=5%, percent of patients (week 20): (28.1%)
- GFR change from baseline <−5%, number of patients (week 20): 11
- GFR change from baseline <−5%, percent of patients (week 20): (34.4%)
- GFR change from baseline >5%, number of patients (week 20): 8
- GFR change from baseline >5%, percent of patients (week 20): (25.0%)
- GFR change from baseline −5% <= and <=5%, number of patients (week 20): 10
- GFR change from baseline −5% <= and <=5%, percent of patients (week 20): (31.3%)
- UREA NITROGEN change from baseline <−5%, number of patients (week 20): 12
- UREA NITROGEN change from baseline <−5%, percent of patients (week 20): (37.5%)
- UREA NITROGEN change from baseline >5%, number of patients (week 20): 11
- UREA NITROGEN change from baseline >5%, percent of patients (week 20): (34.4%)
- UREA NITROGEN change from baseline −5% <= and <=5%, number of patients (week 20): 6
- UREA NITROGEN change from baseline −5% <= and <=5%, percent of patients (week 20): (18.8%)
- CREATININE (RATE BLANKED) change from baseline <−5%, number of patients (week 24): 11
- CREATININE (RATE BLANKED) change from baseline <−5%, percent of patients (week 24): (34.4%)
- CREATININE (RATE BLANKED) change from baseline >5%, number of patients (week 24): 9
- CREATININE (RATE BLANKED) change from baseline >5%, percent of patients (week 24): (28.1%)
- CREATININE (RATE BLANKED) change from baseline −5% <= and <=5%, number of patients (week 24): 9
- CREATININE (RATE BLANKED) change from baseline −5% <= and <=5%, percent of patients (week 24): (28.1%)
- GFR change from baseline <−5%, number of patients (week 24): 6
- GFR change from baseline <−5%, percent of patients (week 24): (18.8%)
- GFR change from baseline >5%, number of patients (week 24): 14
- GFR change from baseline >5%, percent of patients (week 24): (43.8%)
- GFR change from baseline −5% <= and <=5%, number of patients (week 24): 9
- GFR change from baseline −5% <= and <=5%, percent of patients (week 24): (28.1%)
- UREA NITROGEN change from baseline <−5%, number of patients (week 24): 14
- UREA NITROGEN change from baseline <−5%, percent of patients (week 24): (43.8%)
- UREA NITROGEN change from baseline >5%, number of patients (week 24): 13
- UREA NITROGEN change from baseline >5%, percent of patients (week 24): (40.6%)
- UREA NITROGEN change from baseline −5% <= and <=5%, number of patients (week 24): 2
- UREA NITROGEN change from baseline −5% <= and <=5%, percent of patients (week 24): (6.3%)
- percent of the group experiencing a decrease in GFR greater than 5% vs placebo (both groups receiving teduglutide): always less than the percent of the group receiving placebo
- creatinine levels, average change versus baseline (FIG. 9) (groups receiving teduglutide, placebo increased): remained stable or decreased slightly
